Publication PMC5666756, “Fascaplysin Exerts Anti-Cancer Effects through the Downregulation of Survivin and HIF-1α and Inhibition of VEGFR2 and TRKA” (International Journal of Molecular Sciences, 2017)

Legend:
Assay type in all cases: biochemical
[1] = target: T1, VEGFR3 (Homo sapiens, UniProt P35916); assay: high-throughput kinase screening assay (IC50, Figure S4)
T1 construct: gene FLT4

[2] = target: T2, TRKA (tropomyosin-related kinase A) (Homo sapiens, UniProt P04629); assay: radiometric kinase assay ([γ-33P]ATP), IC50 at several ATP concentrations, Lineweaver-Burk
T2 construct: gene NTRK1; recombinant human cytoplasmic domain (aa 441–796), C-terminal His-tagged
T2 sequence (P04629 441-796): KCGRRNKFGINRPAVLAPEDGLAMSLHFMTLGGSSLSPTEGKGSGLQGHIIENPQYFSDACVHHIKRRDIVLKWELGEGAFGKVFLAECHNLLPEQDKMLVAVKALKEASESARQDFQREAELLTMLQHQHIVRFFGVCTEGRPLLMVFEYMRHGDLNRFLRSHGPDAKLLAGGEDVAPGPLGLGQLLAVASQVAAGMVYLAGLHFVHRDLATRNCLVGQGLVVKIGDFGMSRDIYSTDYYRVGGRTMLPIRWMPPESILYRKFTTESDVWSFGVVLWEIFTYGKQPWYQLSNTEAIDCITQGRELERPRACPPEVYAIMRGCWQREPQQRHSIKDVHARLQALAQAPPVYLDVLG

[3] = target: T3, VEGFR2 (vascular endothelial growth factor receptor 2) (Homo sapiens, UniProt P35968); assay: as above
T3 construct: gene KDR
T3 sequence (P35968 789-1356): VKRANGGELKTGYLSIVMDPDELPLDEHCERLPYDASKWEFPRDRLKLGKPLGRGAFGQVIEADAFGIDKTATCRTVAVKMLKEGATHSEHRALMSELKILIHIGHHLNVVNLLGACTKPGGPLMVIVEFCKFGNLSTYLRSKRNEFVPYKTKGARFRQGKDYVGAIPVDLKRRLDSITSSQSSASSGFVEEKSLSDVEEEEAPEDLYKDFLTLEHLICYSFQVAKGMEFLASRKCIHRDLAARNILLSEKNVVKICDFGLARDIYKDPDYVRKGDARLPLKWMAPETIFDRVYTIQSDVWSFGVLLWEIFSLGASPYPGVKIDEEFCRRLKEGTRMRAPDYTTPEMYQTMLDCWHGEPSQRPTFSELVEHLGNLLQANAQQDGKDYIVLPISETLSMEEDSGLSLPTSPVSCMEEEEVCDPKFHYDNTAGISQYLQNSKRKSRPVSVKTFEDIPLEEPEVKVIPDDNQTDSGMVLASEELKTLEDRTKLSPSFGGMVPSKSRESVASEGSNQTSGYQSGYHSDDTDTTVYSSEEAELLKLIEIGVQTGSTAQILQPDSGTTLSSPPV
Text: radiometric kinase assay ([γ-33P]ATP), IC50 at several ATP concentrations, Lineweaver-Burk on VEGFR2 (vascular endothelial growth factor receptor 2) | fascaplysin is noncompetitive with respect to ATP against TRKA and VEGFR2

Measured: IC50

T1 sequence (P35916 25-1363): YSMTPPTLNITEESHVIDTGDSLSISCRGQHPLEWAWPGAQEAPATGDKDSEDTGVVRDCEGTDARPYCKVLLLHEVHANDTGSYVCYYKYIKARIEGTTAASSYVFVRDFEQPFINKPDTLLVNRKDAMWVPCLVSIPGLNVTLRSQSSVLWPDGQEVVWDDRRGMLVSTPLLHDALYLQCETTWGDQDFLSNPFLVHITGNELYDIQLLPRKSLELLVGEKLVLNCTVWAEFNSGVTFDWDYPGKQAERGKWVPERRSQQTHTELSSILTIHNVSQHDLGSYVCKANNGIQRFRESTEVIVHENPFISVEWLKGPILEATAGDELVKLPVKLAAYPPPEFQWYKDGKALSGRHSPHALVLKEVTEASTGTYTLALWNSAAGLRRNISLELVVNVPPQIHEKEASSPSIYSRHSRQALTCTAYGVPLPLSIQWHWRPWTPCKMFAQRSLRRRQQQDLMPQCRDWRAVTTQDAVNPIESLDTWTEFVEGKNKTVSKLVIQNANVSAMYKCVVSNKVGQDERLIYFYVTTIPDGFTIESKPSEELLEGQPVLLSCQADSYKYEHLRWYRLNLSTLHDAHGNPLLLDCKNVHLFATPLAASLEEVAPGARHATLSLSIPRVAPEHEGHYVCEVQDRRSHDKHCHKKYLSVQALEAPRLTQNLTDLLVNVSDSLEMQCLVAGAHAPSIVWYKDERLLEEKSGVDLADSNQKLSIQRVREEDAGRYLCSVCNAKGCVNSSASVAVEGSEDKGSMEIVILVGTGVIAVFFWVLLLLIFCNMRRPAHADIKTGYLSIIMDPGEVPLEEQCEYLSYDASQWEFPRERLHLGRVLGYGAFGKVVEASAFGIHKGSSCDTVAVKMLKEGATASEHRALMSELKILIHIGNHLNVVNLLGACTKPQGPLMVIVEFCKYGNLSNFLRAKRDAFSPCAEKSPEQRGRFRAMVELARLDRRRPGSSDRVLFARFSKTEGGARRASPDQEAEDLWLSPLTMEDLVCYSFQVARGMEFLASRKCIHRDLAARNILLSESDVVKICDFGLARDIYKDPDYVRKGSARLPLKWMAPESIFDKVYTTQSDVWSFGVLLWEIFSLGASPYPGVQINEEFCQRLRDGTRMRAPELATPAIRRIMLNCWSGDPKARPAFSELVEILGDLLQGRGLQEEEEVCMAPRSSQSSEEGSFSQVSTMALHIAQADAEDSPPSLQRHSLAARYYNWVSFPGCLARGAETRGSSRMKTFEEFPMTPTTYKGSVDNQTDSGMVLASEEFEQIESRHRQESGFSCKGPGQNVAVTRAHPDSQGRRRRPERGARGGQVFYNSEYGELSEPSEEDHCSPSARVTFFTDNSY

O=C1c2ccccc2-[n+]2ccc3c([nH]c4ccccc43)c21 [Fascaplysin]
2000 to 3000 nM: all assays above
